Results taken from patent US20140378551A1, “Composition for the Prophylactic Treatment of Neuropathic Pain” (Universite d'Auvergne, priority 2011, published 2014).

System: neuropathic pain induced by spinal nerve ligation among rats
Experiment: Von Frey test: mechanical allodynia, spinal nerve ligation model
Assay type: in vivo
Conditions: 20 mg/kg/rat/day i.p.
Protocol: The effects of the prolonged and preventive administration of memantine were first of all studied among rats. The model used was that of the ligation of the spinal nerve L5 (herein after called SNL for spinal nerve ligation) among rats. The emergence of neuropathic pain is assessed according to the following criteria: • the behavior of the rat following the spinal nerve ligation (SNL), • cognition, and • molecular events, including the expression of phosphorylated tyrosine 1472 of the NR2B sub-unit of the NMDA receptor at the spinal level.
The study was based on the comparison of the two main groups of animals. The first group was a control group. The rats of the control group, designated as “Sham” in the graphs, underwent no operation. They are used to assess the role of the injected substances on the individual, without there being any emergence of neuropathic pain.
Two sub-groups were set up in this group: • one sub-group treated with the vehicle which is a saline solution of NaCl 0.9% by mass, in a dose of 1 mL/kg/rat/day, by intraperitoneal injection; and • one sub-group treated with memantine in a dose of 20 mg/kg/rat/day, by intraperitoneal injection.
The second group of animals comprises rats having to undergo to spinal nerve ligation and therefore likely to develop neuropathic pain. This group is referred to in the graphs by the term SNL. As in the control group, this group is divided into two sub-groups: • one sub-group treated with the vehicle, which is a saline solution of NaCl 0.9% by mass, in a dose of 1 mL/kg/rat/day, by intraperitoneal injection; and • one sub-group treated by memantine in a dose of 20 mg/kg/rat/day, by intraperitoneal injection. […]
7. Seven to 14 days after the surgery, the neuropathic, hyperalgesic or allodynic rats are selected according to their response to nociceptive and non-nociceptive stimulation assessed through appropriate tests (see paragraph 6.1.2). […]

`CC12CC3CC(C)(C1)CC(N)(C3)C2` [memantine, 1-amino-3,5-dimethyl-adamantane] was tested, and the “threshold of response (mechanical allodynia)” value (“threshold of response” for short) (SNL rats, 4 days preceding and 3 days following the operation) was “restores a threshold of response almost identical to that of non-operated rats”, the “threshold of response” value (SNL rats, solely post-operative injection) was “not enough to restore the normal behavior of the rats” and the “threshold of response” value (non-operated (Sham) rats, versus vehicle) was “no influence whatsoever on the behavior of non-operated rats”.
